Among the data in US10428083B2, “Heterocyclylmethyl-thienouracile as antagonists of the adenosine-A2B-receptor” (BAYER PHARMA AKTIENGESELLSCHAFT, priority 2015, dated 2019) are IC50 values, retold here.

The target in this assay is human adenosine A2b receptor (Homo sapiens (Human), UniProt P29275). Nature of the assay: Cellular in vitro reporter gene test for A2b receptor activity (CHO-K1, CRE-luciferase, NECA stimulation). As to conditions: recombinant CHO-K1 cell line, CRE-luciferase reporter, antagonism of EC50 concentration of NECA; in some cases means of several determinations, rounded to two significant figures; read-out: A2b receptor IC50. In kind it is cell-based. An outline of the steps: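 CHO-K1 cells with CRE-driven luciferase; antagonists co-incubated with NECA at its EC50, determined in a pre-experiment on each test day. Luciferase read by luminescence 3 h after NECA addition.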
human adenosine A2b receptor, sequence (P29275 whole entry): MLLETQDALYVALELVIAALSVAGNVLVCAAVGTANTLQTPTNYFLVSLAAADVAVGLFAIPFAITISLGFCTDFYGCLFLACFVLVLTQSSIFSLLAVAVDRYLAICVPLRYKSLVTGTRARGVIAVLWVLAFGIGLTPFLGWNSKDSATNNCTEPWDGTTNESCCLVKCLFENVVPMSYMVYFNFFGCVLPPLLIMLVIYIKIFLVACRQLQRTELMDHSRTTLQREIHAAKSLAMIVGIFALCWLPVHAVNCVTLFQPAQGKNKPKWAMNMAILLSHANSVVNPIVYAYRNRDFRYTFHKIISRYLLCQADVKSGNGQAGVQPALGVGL
Regarding `Cc1c(CN2CCNC2=O)sc2c1c(=O)n(CC(C)(C)F)c(=O)n2CCC(F)(F)F` [Example 225, 3-(2-Fluoro-2-methylpropyl)-5-methyl-6-[(2-oxoimidazolidin-1-yl)methyl]-1-(3,3,3-trifluoropropyl)thieno[2,3-d]pyrimidine-2,4(1H,3H)-dione], the IC50 (usually the midpoint of a concentration-inhibition curve) came out at 12 nM. The same measure for `COCCn1c(=O)n(CC2CCCO2)c(=O)c2c(C)c(CN3CCNC3=O)sc21` (racemic) [Example 332, 1-(2-Methoxyethyl)-5-methyl-6-[(2-oxoimidazolidin-1-yl)methyl]-3-(tetrahydrofuran-2-ylmethyl)thieno[2,3-d]pyrimidine-2,4(1H,3H)-dione]: 110 nM; for `Cc1c(CN2CCNC(=O)C2=O)sc2c1c(=O)n(C(C)C)c(=O)n2CC1CCCO1` (single isomer, unassigned) [Example 482, 6-[(2,3-Dioxopiperazin-1-yl)methyl]-3-isopropyl-5-methyl-1-(tetrahydrofuran-2-ylmethyl)thieno[2,3-d]pyrimidine-2,4(1H,3H)-dione]: 410 nM. Regarding `Cc1c(CN2CCNC2=S)sc2c1c(=O)n(CC(F)F)c(=O)n2CC1CCCO1` (single isomer, unassigned) [Example 163, 3-(2,2-Difluoroethyl)-5-methyl-1-(tetrahydrofuran-2-ylmethyl)-6-[(2-thioxoimidazolidin-1-yl)methyl]thieno[2,3-d]pyrimidine-2,4(1H,3H)-dione], the IC50 came to 5.2 nM. For the compound `COCCn1c(=O)n(CC(F)F)c(=O)c2c(C)c(CN3CCNC3=O)sc21` [Example 96, 3-(2,2-Difluoroethyl)-1-(2-methoxyethyl)-5-methyl-6-[(2-oxoimidazolidin-1-yl)methyl]thieno[2,3-d]pyrimidine-2,4(1H,3H)-dione], the IC50 was 9.4 nM. The same measure for `COC(C)Cn1c(=O)c2c(C)c(CN3CCNC3=O)sc2n(CCC(F)(F)F)c1=O` (racemic) [Example 412, 3-(2-Methoxypropyl)-5-methyl-6-[(2-oxoimidazolidin-1-yl)methyl]-1-(3,3,3-trifluoropropyl)thieno[2,3-d]pyrimidine-2,4(1H,3H)-dione]: 5.4 nM; for `Cc1c(CN2CCNC2=NC#N)sc2c1c(=O)n(C(C)C)c(=O)n2CC1CCO1` (single isomer, unassigned) [Example 265, [1-{[3-Isopropyl-5-methyl-1-(oxetan-2-ylmethyl)-2,4-dioxo-1,2,3,4-tetrahydrothieno[2,3-d]pyrimidin-6-yl]methyl}imidazolidin-2-ylidene]cyanamide]: 14 nM. The same measure for `COC(=O)N=C1NCCN1Cc1sc2c(c1C)c(=O)n(CC(C)OC)c(=O)n2CCC(F)(F)F` (racemic) [Example 472, Methyl [1-{[3-(2-methoxypropyl)-5-methyl-2,4-dioxo-1-(3,3,3-trifluoropropyl)-1,2,3,4-tetrahydrothieno[2,3-d]pyrimidin-6-yl]methyl}imidazolidin-2-ylidene]carbamate]: 6.7 nM. The result for `COCCn1c(=O)c2c(C)c(CN3CCNC(=O)C3=O)sc2n(CC2CCCO2)c1=O` (racemic) [Example 278, 6-[(2,3-Dioxopiperazin-1-yl)methyl]-3-(2-methoxyethyl)-5-methyl-1-(tetrahydrofuran-2-ylmethyl)thieno[2,3-d]pyrimidine-2,4(1H,3H)-dione] reads 130 nM; that for `Cc1c(CN2CCNC2=S)sc2c1c(=O)n(CC(F)(F)F)c(=O)n2C` [Example 159, 1,5-Dimethyl-6-[(2-thioxoimidazolidin-1-yl)methyl]-3-(2,22-trifluoroethyl)thieno[2,3-d]pyrimidine-2,4(1H,3H)-dione], 14 nM. As to `CCn1c(=O)c2c(C)c(CN3CCNC(=O)C3=O)sc2n(CC2CCCO2)c1=O` (single isomer, unassigned) [Example 477, 6-[(2,3-Dioxopiperazin-1-yl)methyl]-3-ethyl-5-methyl-1-(tetrahydrofuran-2-ylmethyl)thieno[2,3-d]pyrimidine-2,4(1H,3H)-dione], the IC50 worked out at 270 nM. The same measure for `CCn1c(=O)c2c(C)c(C(C)N3CCNC3=O)sc2n(CCC(F)(F)F)c1=O` (single isomer, unassigned) [Example 504, 3-Ethyl-5-methyl-6-[1-(2-oxoimidazolidin-1-yl)ethyl]-1-(3,3,3-trifluoropropyl)thieno[2,3-d]pyrimidine-2,4(1H,3H)-dione]: 2000 nM; for `COC(C)Cn1c(=O)c2c(C)c(CN3CCNC3=NC#N)sc2n(CCC(F)(F)F)c1=O` (single isomer, unassigned) [Example 455, [1-{[3-(2-Methoxypropyl)-5-methyl-2,4-dioxo-1-(3,3,3-trifluoropropyl)-1,2,3,4-tetrahydrothieno[2,3-d]pyrimidin-6-yl]methyl}imidazolidin-2-ylidene]cyanamide]: 3.6 nM; for `CCn1c(=O)c2c(C)c(CN3CCNC3=S)sc2n(CC2CCCO2)c1=O` (single isomer, unassigned) [Example 140, 3-Ethyl-5-methyl-1-(tetrahydrofuran-2-ylmethyl)-6-[(2-thioxoimidazolidin-1-yl)methyl]thieno[2,3-d]pyrimidine-2,4(1H,3H)-dione]: 4.8 nM. The result for `COC(=O)N=C1NCCN1Cc1sc2c(c1C)c(=O)n(C(C)C)c(=O)n2CC1CCO1` (single isomer, unassigned) [Example 458, Methyl [1-{[3-isopropyl-5-methyl-1-(oxetan-2-ylmethyl)-2,4-dioxo-1,2,3,4-tetrahydrothieno[2,3-d]pyrimidin-6-yl]methyl}imidazolidin-2-ylidene]carbamate] reads 34 nM; that for `Cc1c(Cn2cc[nH]c2=O)sc2c1c(=O)n(CC(C)(C)C)c(=O)n2CCC(F)(F)F` [Example 505, 3-(2,2-Dimethylpropyl)-5-methyl-6-[(2-oxo-2,3-dihydro-H-imidazol-1-yl)methyl]-1-(3,3,3-trifluoropropyl)thieno[2,3-d]pyrimidine-2,4(1H,3H)-dione], 5 nM. The result for `CCn1c(=O)c2c(C)c(CN3CCNC3=O)sc2n(CCOC2CCCC2)c1=O` [Example 308, 1-[2-(Cyclopentyloxy)ethyl]-3-ethyl-5-methyl-6-[(2-oxoimidazolidin-1-yl)methyl]thieno[2,3-d]pyrimidine-2,4(1H,3H)-dione] reads 140 nM. As for `CCn1c(=O)c2c(C)c(CN3CCNC3=NC#N)sc2n(CCOC)c1=O` [Example 117, [1-{[3-Ethyl-1-(2-methoxyethyl)-5-methyl-2,4-dioxo-1,2,3,4-tetrahydrothieno[2,3-d]pyrimidin-6-yl]methyl}imidazolidin-2-ylidene]cyanamide], the IC50 was determined as 5.2 nM. The same measure for `Cc1c(CN2CCNC(=O)C2=O)sc2c1c(=O)n(CC(C)(C)C)c(=O)n2CC1CCCO1` (single isomer, unassigned) [Example 484, 3-(2,2-Dimethylpropyl)-6-[(2,3-dioxopiperazin-1-yl)methyl]-5-methyl-1-(tetrahydrofuran-2-ylmethyl)thieno[2,3-d]pyrimidine-2,4(1H,3H)-dione]: 67 nM. The same measure for `CCn1c(=O)c2c(C)c(Cn3nc[nH]c3=O)sc2n(CC2CCCO2)c1=O` (racemic) [Example 419, 3-Ethyl-5-methyl-6-[(5-oxo-4,5-dihydro-1H-1,2,4-triazol-1-yl)methyl]-1-(tetrahydrofuran-2-ylmethyl)thieno[2,3-d]pyrimidine-2,4(1H,3H)-dione]: 130 nM.
